Here are results for 22 compounds from patent publication US7875604B2, “Compounds that inhibit HIV particle formation” (University of Virginia Patent Foundation, priority 2004, dated 2011).

Where two headings read alike, the source gives them in different places. Some results are limits rather than exact numbers.

Common to all, as to format: cell-based
One series deals with HIV-1 BR/93/021. The series can be described thus: Anti-HIV efficacy in fresh human PBMCs, reverse transcriptase readout, HIV-1 BR/93/021. The procedure: (§1) Compounds were evaluated for their ability to inhibit HIV replication in fresh human PBMCs. The assay was performed as follows.
(§2) Fresh human PBMCs, seronegative for HIV and HBV, were isolated from screened donors (Interstate Blood Bank, Inc. Memphis, Tenn.). Cells were pelleted/washed 2-3 times by low speed centrifugation and re-suspension in PBS to remove contaminating platelets. The Leukophoresed blood was then diluted 1:1 with Dulbecco's Phosphate Buffered Saline (DPBS) and layered over 14 mL of Lymphocyte Separation Medium (LSM; Cellgro® by Mediatech, Inc.; density 1.078+/−0.002 g/ml; Cat.#85-072-CL) in a 50 mL centrifuge tube and then centrifuged for 30 minutes at 600×g. Banded PBMCs were gently aspirated from the resulting interface and subsequently washed 2× with PBS by low speed centrifugation. After the final wash, cells were enumerated by trypan blue exclusion and re-suspended at 1×10^7 cells/mL in RPMI 1640 supplemented with 15% Fetal Bovine Serum (FBS), and 2 mM L-glutamine, 4 μg/mL Phytohemagglutinin (PHA-P, Sigma). The cells were allowed to incubate for 48-72 hours at 37° C. After incubation, PBMCs were centrifuged and resuspended in RPMI 1640 with 15% FBS, 2 mM L-glutamine, 100 U/mL penicillin, 100 μg/mL streptomycin, 10 μg/mL gentamycin, and 20 U/mL recombinant human IL-2 (R&D Systems, Inc). IL-2 is included in the culture medium to maintain the cell division initiated by the PHA mitogenic stimulation. PBMCs were maintained in this medium at a concentration of 1-2×10^6 cells/mL with biweekly medium changes until used in the assay protocol. Cells were kept in culture for a maximum of two weeks before being deemed too old for use in assays and discarded. Monocytes were depleted from the culture as the result of adherence to the tissue culture flask.
(§3) For the standard PBMC assay, PHA-P stimulated cells from at least two normal donors were pooled (mixed together), diluted in fresh medium to a final concentration of 1×10^6 cells/mL, and plated in the interior wells of a 96 well round bottom microplate at 50 μL/well (5×10^4 cells/well) in a standard format developed by the Infectious Disease Research department of Southern Research Institute. Pooling (mixing) of mononuclear cells from more than one donor is used to minimize the variability observed between individual donors, which results from quantitative and qualitative differences in HIV infection and overall response to the PHA and IL-2 of primary lymphocyte populations. Each plate contains virus/cell control wells (cells plus virus), experimental wells (drug plus cells plus virus) and compound control wells (drug plus media without cells, necessary for MTS monitoring of cytotoxicity). Since HIV-1 is not cytopathic to PBMCs, this allows the use of the same assay plate for both antiviral activity and cytotoxicity measurements. Test drug dilutions were prepared at a 2× concentration in microtiter tubes and 100 μL of each concentration was placed in appropriate wells using the standard format. 50 μL of a predetermined dilution of virus stock was placed in each test well (final MOI≅0.1). The PBMC cultures were maintained for seven days following infection at 37° C., 5% CO2. After this period, cell-free supernatant samples were collected for analysis of reverse transcriptase activity as a measure of virus release. Following removal of supernatant samples, compound cytotoxicity was measured by addition of MTS to the plates for determination of cell viability. Wells were also examined microscopically and any abnormalities were noted.
(§4) A microtiter plate-based reverse transcriptase (RT) reaction was utilized (Buckheit et al., AIDS Research and Human Retroviruses 7:295-302, 1991). Tritiated thymidine triphosphate (3H-TTP, 80 Ci/mmol, NEN) was received in 1:1 dH2O:Ethanol at 1 mCi/mL. […]

The next series concerns fresh human PBMCs. The series is described as follows: MTS staining for PBMC viability to measure cytotoxicity. The protocol: as §3
At assay termination, assay plates were stained with the soluble tetrazolium-based dye MTS (CellTiter 96 Reagent, Promega) to determine cell viability and quantify compound toxicity. The mitochondrial enzymes of metabolically active cells metabolize MTS to yield a soluble formazan product. This allows the rapid quantitative analysis of cell viability and compound cytotoxicity. […] At termination of the assay, 20 μL of MTS reagent was added per well. The microtiter plates were then incubated 4-6 hrs at 37° C. The incubation intervals were chosen based on empirically determined times for optimal dye reduction. Adhesive plate sealers were used in place of the lids, the sealed plate was inverted several times to mix the soluble formazan product and the plate was read spectrophotometrically at 490/650 nm with a Molecular Devices Vmax or SpectraMaxPlus plate reader.
(§5) Compounds were tested in the PBMC assay using the maximum high-test concentration possible based on the supplied stocks which are listed in table 3. Compounds were prepared at a 2× high-test concentration by combining drug stock with tissue culture media at a ratio of 5 μL of drug to 995 μL of media. This 2× high-test sample was subsequently serially diluted in tissue culture media using 1/2 log dilutions. This series of 2× concentrated drug was subsequently diluted 1:1 by combining with an equal volume of cells in media in the 96-well plates used for the assay.

Another series has as its system HIV-1 NL4-3. The series can be described thus: Anti-HIV efficacy in fresh human PBMCs, reverse transcriptase readout, HIV-1 NL4-3. The protocol: as §1, §2, §3, §4
In series [1] the test system is U1 cells latently infected with HIV-1. The series is described as follows: U1 latency activation assay (TNF-α induced, supernatant reverse transcriptase). As to conditions: U1 cell assay. The procedure:
U1 cells were obtained from the AIDS Research and Reference Reagent Program and maintained under standard culture conditions in RPMI 1640 supplemented with 10% fetal bovine serum (heat inactivated), 2 mM L-glutamine, 100 U/mL penicillin and 100 μg/mL streptomycin. U1 cells are derived from the histocytic leukemia cell line U937, and contain an integrated copy of a cytokine and/or phorbol inducible provirus (HIV-1IIIB). Cultures were maintained in such a way as to ensure exponential growth of the populations. Addition of TNF-α to the cell culture induces HIV-1, so that inhibition of virus production indicates an inhibition of a post-integration function of the HIV-1 life cycle. This is where an inhibitor of Rev function would be expected to act. […]
(§6) At the time of the assay, cells were collected by centrifugation and counted by hemacytometer. If cell viability by Trypan Blue dye exclusion was less than 70% the assay was terminated. The cells were adjusted to 5×10^4 cells/mL and 100 μL placed in 96 well plates with 100 μL media containing a final concentration of 5 ng/mL TNF-α and the test compound. Cultures were incubated for 3 days and supernatants harvested. Compound toxicity was determined by MTS dye reduction. Virus expression was measured by supernatant reverse transcriptase activity.
Reverse transcriptase was assayed to measure virus particle release as described above for the PBMC assay.
as §5, with “U1 latency” for “PBMC”, “3. Compounds were tested using the maximum high-test concentration possible based on the supplied stocks.” for “3.”, “assay. Temacrazine a known inhibitor of HIV transcription was used as a control compound that is active in the post-integration part of the HIV life cycle.” for “assay.”
(§7) Compounds were tested using the maximum high-test concentration possible based on the supplied stocks. Compounds were prepared at a 2× high-test concentration by combining drug stock with tissue culture media at a ratio of 5 μL of drug to 995 μL of media. This 2× high-test (HT) sample was subsequently serially diluted in tissue culture media using 1/2 log dilutions. This series of 2× concentrated drug was subsequently diluted 1:1 by combining with an equal volume of cells in media in the 96-well plates used for the assay.

In a further series the test system is U1 cells. The series is described as follows: MTS staining for cell viability in U1 cell assay. As to conditions: analogs, Table 8, MTS, read-out: TC50 (the source's name). The protocol:
as §6
(§8) At assay termination, the assay plates were stained with the soluble tetrazolium-based dye MTS (CellTiter 96 Reagent, Promega) to determine cell viability and quantify compound toxicity as described for the PBMC assay.
as §5, with “U1 latency” for “PBMC”, “3. Compounds were tested using the maximum high-test concentration possible based on the supplied stocks.” for “3.”, “assay. Temacrazine a known inhibitor of HIV transcription was used as a control compound that is active in the post-integration part of the HIV life cycle.” for “assay.”
as §7

The nature of series [2]: MTS staining for cell viability in U1 cell assay. As to conditions: human, U1 cells stimulated with TNF-α, read-out: TC50. The protocol:
as §6, §8
as §5, with “U1 latency” for “PBMC”, “3. Compounds were tested using the maximum high-test concentration possible based on the supplied stocks.” for “3.”, “assay. Temacrazine a known inhibitor of HIV transcription was used as a control compound that is active in the post-integration part of the HIV life cycle.” for “assay.”
as §7

For orientation: IC50 means the concentration that inhibits the measured activity by half. Read a high IC50 as weaker potency. Take `Cc1cn([C@H]2C[C@H](N=[N+]=[N-])[C@@H](CO)O2)c(=O)[nH]c1=O` [AZT, reference compound]: the “TI (TC50/IC50)” value with HIV-1 BR/93/021 (HIV-1 BR/93/021, PBMCs) is >404.86; in the series on HIV-1 NL4-3 (HIV-1 NL4-3, PBMCs), >1612.90. The half-inhibitory concentration (IC50) in the series with HIV-1 BR/93/021 (HIV-1 BR/93/021, fresh human PBMCs, seven days, RT activity) came to 0.00247 µM; in the series with HIV-1 NL4-3 (HIV-1 NL4-3, fresh human PBMCs, seven days, RT activity), 0.00062 µM. In addition, the CC50 in the series with fresh human PBMCs is > 1 µM.
`COc1ccc(-c2cnc(OC(C)(C)C)nc2OC(C)(C)C)cc1OC` [Compound 617]: the half-maximal inhibitory concentration (IC50) in series [1] (analogs, Table 8) was > 75 µM. In the series with U1 cells, the CC50 was > 75 µM.
In series [1] (analogs, Table 8), `COc1ccc(-c2cnc(OC(C)(C)C)nc2OC(C)(C)C)cc1` [Compound 618] showed a half-maximal inhibitory concentration (IC50) of 18.3 µM. Besides, the CC50 with U1 cells was determined as 53.6 µM.
Compound `Cc1cccc(-c2nc(Nc3ccc(I)cc3)c3ccccc3n2)c1` [Compound 718] displayed an IC50 in series [1] (analogs, Table 8) of 47.2 µM. Besides, the CC50 in the series with U1 cells was determined as 50.1 µM.
Compound `Cc1ccc(Nc2ncnc3ccccc23)cc1C` [Compound 719] returned an IC50 in series [1] (analogs, Table 8) of 1.73 µM. Besides, in the series on U1 cells, the CC50 is > 75 µM.
In series [1] (analogs, Table 8), `CCOC(=O)c1ccc(Nc2ncnc3ccccc23)cc1` [Compound 720] showed a half-inhibitory concentration (IC50) of 3.66 µM. In the series with U1 cells, the CC50 was > 75 µM.
The like results for `FC(F)(F)c1cccc(Nc2nc(-c3ccccc3)nc3ccccc23)c1` [Compound 722] were, in that order, 21.9 µM and 35 µM.
In the same order, the values of `COC(=O)c1ccc(Nc2nc(-c3ccccc3Cl)nc3ccccc23)cc1` [Compound 728] are 13.4 µM and 17.5 µM.
In the same order, the values of `Cc1ccc(-c2nc(Nc3ccc(I)cc3)c3ccccc3n2)cc1` [Compound 729] are > 75 µM and > 75 µM.
Take `CCOc1ccccc1Nc1nc(-c2ccc(C)cc2)nc2ccccc12` [Compound 730]: the IC50 in series [1] (analogs, Table 8) is > 75 µM. Further, the CC50 in the series on U1 cells is > 75 µM.
Turning to `Clc1ccccc1Nc1nc(-c2ccc(Br)cc2)nc2ccccc12` [Compound 731], in series [1] (analogs, Table 8), the IC50 was 1.65 µM. The CC50 in the series on U1 cells is > 75 µM.
In series [1] (analogs, Table 8), `Brc1ccc(Nc2nc(-c3ccncc3)nc3ccccc23)cc1` [Compound 734] came in with an IC50 of 4.07 µM. Besides, the CC50 in the series on U1 cells was > 12.5 µM.
For the compound `Fc1ccccc1-c1nc(Nc2cccc(C(F)(F)F)c2)c2ccccc2n1` [Compound 748], inhibition in series [1] (analogs, Table 8) was half-maximal at 10.5 µM (IC50). The CC50 with U1 cells was 33 µM.
In the same order, the values of `COc1ccc(Nc2nc(-c3ccccc3F)nc3ccccc23)cc1` [Compound 749] are 2.05 µM and 19.5 µM.
The like results for `Oc1ccccc1-c1nc(Nc2ccc(F)c(F)c2)c2ccccc2n1` [Compound 750] were, in that order, > 75 µM and > 75 µM.
In the same order, the values of `COc1ccccc1Nc1nc(-c2ccccc2O)nc2ccccc12` [Compound 751] are 71.4 µM and > 75 µM.
With `COC(=O)c1cccc(Nc2nc(-c3ccccc3O)nc3ccccc23)c1` [Compound 752], the IC50 in series [1] (analogs, Table 8) is > 75 µM. Besides, the CC50 in the series with U1 cells is > 75 µM.
Take `Clc1ccc(-c2nc(Nc3ccc(Oc4ccccc4)cc3)c3ccccc3n2)cc1` [Compound 753]: the half-maximal inhibitory concentration (IC50) in series [1] (analogs, Table 8) was 47.1 µM. The CC50 with U1 cells was 48 µM.
The compound `CC(=O)Nc1ccc(Nc2nc(-c3ccccc3)nc3ccccc23)cc1` [Compound 754] gave a 50% inhibitory concentration (IC50) in series [1] (analogs, Table 8) of 3.69 µM. In addition, in the series on U1 cells, the CC50 is 15.1 µM.
In the same order, the values of `CC(=O)c1ccc(Nc2nc(-c3ccccc3)nc3ccccc23)cc1` [Compound 755] are 1.78 µM and > 75 µM.
In turn, `Cc1nc(Oc2ccccc2)c2ccccc2n1` [Compound 756] returned an IC50 in series [1] (analogs, Table 8) of 1.74 µM. Besides, in the series on U1 cells, the CC50 stood at 52 µM.
For `O=c1c2ccccc2n2nnc3ccc(NCCCN4CCN(CCCNc5ccc6nnn7c8ccccc8c(=O)c5c67)CC4)c1c32` [Temacrazine, reference compound], in series [1] (Human immunodeficiency virus 1, 72 h, Table 6, 5 ng/mL TNF-α, 3 days, RT activity), the IC50 came out at 0.002 µM. For the same compound, the “TI (TC50/IC50)” value in series [1] (Table 6) was >250. For the same compound, the CC50 at 3 days was > 0.5 µM in series [2] (Table 6, MTS) and > 0.5 µM in series [2] (Table 8, control, MTS).
